ChEMBL document CHEMBL5230084, “Indole-based derivatives as potential antibacterial activity against methicillin-resistance Staphylococcus aureus (MRSA)” (Eur J Med Chem, 2020)
pIC50: −log10 of the molar value. ≈ marks a conversion by molar mass, not a printed value. One block for each compound: values may come before it.

Legend:
Staphylococcus aureus [1] = experiment: Antibacterial activity against methicillin-resistant Staphylococcus aureus; assay type: functional
Staphylococcus aureus [2] = experiment: Antibacterial activity against Staphylococcus aureus assessed as inhibition of bacterial growth; assay type: functional
Staphylococcus aureus [3] = experiment: Antibacterial activity methicillin-resistant Staphylococcus aureus B-10760 assessed as inhibition of bacterial growth incubated for 16 to 24 hrs by broth microdilution assay; assay type: functional; details: time 16-24 hrs
Staphylococcus aureus [4] = experiment: Antibacterial activity methicillin-resistant Staphylococcus aureus ST-1745 assessed as inhibition of bacterial growth incubated for 16 to 24 hrs by broth microdilution assay; assay type: functional; details: time 16-24 hrs
Staphylococcus aureus [5] = experiment: Antibacterial activity methicillin-resistant Staphylococcus aureus ST-2438 assessed as inhibition of bacterial growth incubated for 16 to 24 hrs by broth microdilution assay; assay type: functional; details: time 16-24 hrs
Staphylococcus aureus [6] = experiment: Antibacterial activity methicillin-resistant Staphylococcus aureus ST-3151 assessed as inhibition of bacterial growth incubated for 16 to 24 hrs by broth microdilution assay; assay type: functional; details: time 16-24 hrs
Staphylococcus aureus [7] = experiment: Antibacterial activity methicillin-resistant Staphylococcus aureus ST-5457 assessed as inhibition of bacterial growth incubated for 16 to 24 hrs by broth microdilution assay; assay type: functional; details: time 16-24 hrs
Staphylococcus aureus [8] = experiment: Antibacterial activity methicillin-resistant Staphylococcus aureus P-8029 assessed as inhibition of bacterial growth incubated for 16 to 24 hrs by broth microdilution assay; assay type: functional; details: time 16-24 hrs
Staphylococcus aureus [9] = experiment: Antibacterial activity methicillin-resistant Staphylococcus aureus ST-2071 assessed as inhibition of bacterial growth incubated for 16 to 24 hrs by broth microdilution assay; assay type: functional; details: time 16-24 hrs
Staphylococcus aureus [10] = experiment: Antibacterial activity methicillin-resistant Staphylococcus aureus P-6642 assessed as inhibition of bacterial growth incubated for 16 to 24 hrs by broth microdilution assay; assay type: functional; details: time 16-24 hrs
Staphylococcus aureus [11] = experiment: Antibacterial activity methicillin-resistant Staphylococcus aureus MTCC-96 assessed as inhibition of bacterial growth incubated for 16 to 24 hrs by broth microdilution assay; assay type: functional; details: time 16-24 hrs
Staphylococcus aureus [12] = experiment: Antibacterial activity methicillin-resistant Staphylococcus aureus B-10732 assessed as inhibition of bacterial growth incubated for 16 to 24 hrs by broth microdilution assay; assay type: functional; details: time 16-24 hrs
Staphylococcus aureus [13] = experiment: Antibacterial activity methicillin-resistant Staphylococcus aureus ST-10342 assessed as inhibition of bacterial growth incubated for 16 to 24 hrs by broth microdilution assay; assay type: functional; details: time 16-24 hrs
Staphylococcus aureus [14] = experiment: Antibacterial activity against methicillin-resistant Staphylococcus aureus 252 assessed as inhibition of bacterial growth; assay type: functional
[15] = Inhibition of methicillin-resistant Staphylococcus aureus pyruvate kinase
Staphylococcus aureus [16] = experiment: Antibacterial activity against methicillin-resistant Staphylococcus aureus 4 assessed as inhibition of bacterial growth; assay type: functional
Staphylococcus aureus [17] = experiment: Antibacterial activity against methicillin-resistant Staphylococcus aureus 11 assessed as inhibition of bacterial growth; assay type: functional
Staphylococcus aureus [18] = experiment: Antibacterial activity against methicillin-resistant Staphylococcus aureus 3 assessed as inhibition of bacterial growth; assay type: functional
Staphylococcus aureus [19] = experiment: Antibacterial activity against methicillin-resistant Staphylococcus aureus 8 assessed as inhibition of bacterial growth; assay type: functional
Staphylococcus aureus [20] = experiment: Antibacterial activity against methicillin-resistant Staphylococcus aureus 6 assessed as inhibition of bacterial growth; assay type: functional
Staphylococcus aureus [21] = experiment: Antibacterial activity against methicillin-resistant Staphylococcus aureus 12 assessed as inhibition of bacterial growth; assay type: functional
Staphylococcus aureus [22] = experiment: Antibacterial activity against methicillin-resistant Staphylococcus aureus 9 assessed as inhibition of bacterial growth; assay type: functional
Staphylococcus aureus [23] = experiment: Antibacterial activity against Staphylococcus aureus ATCC 25923 assessed as inhibition of bacterial growth by agar well diffusion method; assay type: functional

SMILES: N=C(N)N/N=C/c1cn(S(=O)(=O)c2ccccc2)c2ccc(-c3ccc(C(F)(F)F)cc3)cc12
MIC (Staphylococcus aureus [1]): 3.13 µg/mL (≈ 6.45 µM)

SMILES: O=C(c1ccc(F)cc1)C1C(c2ccc(Br)cc2)CNC12C(=O)Nc1ccccc12 (stereo unspecified)
MIC (Staphylococcus aureus [2]): 40 µg/mL (≈ 86 µM)

SMILES: Fc1ccc2c(-c3ccc4cc(Cl)ccc4n3)c[nH]c2c1
MIC (Staphylococcus aureus [1]): 0.62 µg/mL (≈ 2.09 µM)

SMILES: Clc1ccc(-n2nc(C3CCNCC3)cc2/C=C/c2c[nH]c3ccc(Cl)cc23)cc1
MIC (Staphylococcus aureus [1]): 1 µg/mL (≈ 2.29 µM)

SMILES: O=C(/C=C/c1c[nH]c2ccccc12)c1cccc(OCc2ccccc2)c1
MIC (Staphylococcus aureus [3]): 12.5 µg/mL (≈ 35.4 µM)
MIC (Staphylococcus aureus [4]): 12.5 µg/mL (≈ 35.4 µM)
MIC (Staphylococcus aureus [5]): 12.5 µg/mL (≈ 35.4 µM)
MIC (Staphylococcus aureus [6]): 12.5 µg/mL (≈ 35.4 µM)
MIC (Staphylococcus aureus [7]): 12.5 µg/mL (≈ 35.4 µM)
MIC (Staphylococcus aureus [8]): 12.5 µg/mL (≈ 35.4 µM)
MIC (Staphylococcus aureus [9]): 12.5 µg/mL (≈ 35.4 µM)
MIC (Staphylococcus aureus [10]): 12.5 µg/mL (≈ 35.4 µM)
MIC (Staphylococcus aureus [11]): 12.5 µg/mL (≈ 35.4 µM)
MIC (Staphylococcus aureus [12]): 12.5 µg/mL (≈ 35.4 µM)
MIC (Staphylococcus aureus [13]): 12.5 µg/mL (≈ 35.4 µM)

SMILES: O=C(NCC(NC(=O)C(=O)c1c[nH]c2ccc(Br)cc12)c1c[nH]c2ccc(Br)cc12)OC(F)(F)F (stereo unspecified)
MIC (Staphylococcus aureus [14]): 1 µg/mL (≈ 1.62 µM)

SMILES: Fc1ccc2[nH]cc(-c3ccc4cc(Cl)ccc4n3)c2c1
MIC (Staphylococcus aureus [1]): 0.62 µg/mL (≈ 2.09 µM)

SMILES: Clc1ccc2c(Cl)cc(-c3c[nH]c4ccc(Br)cc34)nc2c1
MIC (Staphylococcus aureus [1]): < 1 µg/mL

SMILES: c1ccc2c(-c3c[nH]c4ccccc34)c3c(nc2c1)[nH]c1ccccc13
MIC (Staphylococcus aureus [1]): 1 µg/mL (≈ 3 µM)

SMILES: OCc1cc(-c2c[nH]c3ccc(Br)cc23)nc2cc(Cl)ccc12
MIC (Staphylococcus aureus [1]): < 1 µg/mL

SMILES: O=C(C1=N[C@H](c2c[nH]c3cc(Br)ccc23)CN1)c1c[nH]c2cc(O)ccc12
pIC50 [15]: 7.80

SMILES: Fc1cccc(Nc2nnc(Cc3c[nH]c4ccccc34)s2)c1
MIC (Staphylococcus aureus [1]): 25 µg/mL (≈ 77.1 µM)

SMILES: CC(NC(=O)C(=O)c1c[nH]c2ccc(Br)cc12)c1c[nH]c2ccc(Br)cc12 (stereo unspecified)
MIC (Staphylococcus aureus [14]): 2 µg/mL (≈ 4.09 µM)

SMILES: Brc1ccc2[nH]cc(C3Nc4ccc(I)cc4[C@H]4OCO[C@@H]34)c2c1 (stereo partly specified)
MIC (Staphylococcus aureus [1]): 0.31 µg/mL (≈ 0.624 µM)

SMILES: CCOC(=O)CN(CCc1c(I)n([C@@H]2CC(OC(=O)c3ccc(C)cc3)[C@@H](COC(=O)c3ccc(C)cc3)O2)c2ccccc12)Cc1ccccc1 (stereo partly specified)
MIC (Staphylococcus aureus [16]): 6 µg/mL (≈ 7.36 µM)
MIC (Staphylococcus aureus [17]): 6 µg/mL (≈ 7.36 µM)
MIC (Staphylococcus aureus [18]): 6 µg/mL (≈ 7.36 µM)
MIC (Staphylococcus aureus [19]): 6 µg/mL (≈ 7.36 µM)
MIC (Staphylococcus aureus [20]): 6 µg/mL (≈ 7.36 µM)
MIC (Staphylococcus aureus [21]): 6 µg/mL (≈ 7.36 µM)
MIC (Staphylococcus aureus [22]): 6 µg/mL (≈ 7.36 µM)

SMILES: Cc1ccc(C(=O)CC2C[C@H](n3c(-c4cc5ccccc5n4S(=O)(=O)c4ccc(C)cc4)c(CC(=O)OCc4ccccc4)c4ccccc43)O[C@@H]2COC(=O)c2ccc(C)cc2)cc1 (stereo partly specified)
MIC (Staphylococcus aureus [16]): 3 µg/mL (≈ 3.39 µM)
MIC (Staphylococcus aureus [17]): 3 µg/mL (≈ 3.39 µM)
MIC (Staphylococcus aureus [18]): 3 µg/mL (≈ 3.39 µM)
MIC (Staphylococcus aureus [19]): 3 µg/mL (≈ 3.39 µM)
MIC (Staphylococcus aureus [20]): 3 µg/mL (≈ 3.39 µM)
MIC (Staphylococcus aureus [21]): 3 µg/mL (≈ 3.39 µM)
MIC (Staphylococcus aureus [22]): 3 µg/mL (≈ 3.39 µM)

SMILES: CCCNc1nnc(Cc2c[nH]c3ccccc23)s1
MIC (Staphylococcus aureus [1]): 6.25 µg/mL (≈ 22.9 µM)

SMILES: Clc1ccc2nc(-c3c[nH]c4ccc(Br)cc34)ccc2c1
MIC (Staphylococcus aureus [1]): 0.62 µg/mL (≈ 1.73 µM)

SMILES: CCn1cc(Br)c2c3c(-c4ccc(OC)cc4)occ3ccc21
MIC (Staphylococcus aureus [1]): 1.4 µg/mL (≈ 3.78 µM)

SMILES: Oc1cccc(C(c2c[nH]c3ccc(Br)cc23)c2c[nH]c3ccc(Br)cc23)c1
MIC (Staphylococcus aureus [1]): 1 µg/mL (≈ 2.02 µM)

SMILES: O=C1NC[C@@H](c2c[nH]c3cc(Br)ccc23)N[C@H]1c1c[nH]c2ccccc12
pIC50 [15]: 7.80

SMILES: O=C(C1=NC(c2c[nH]c3cc(Br)ccc23)CN1)c1c[nH]c2ccccc12 (stereo unspecified) [SPONGOTINE A]
pIC50 [15]: 7.80

SMILES: Oc1ccc(C(c2c[nH]c3ccc(Br)cc23)c2c[nH]c3ccc(Br)cc23)cc1
MIC (Staphylococcus aureus [1]): 1 µg/mL (≈ 2.02 µM)

SMILES: c1ccc(Nc2nnc(Cc3c[nH]c4ccccc34)s2)cc1
MIC (Staphylococcus aureus [1]): 25 µg/mL (≈ 81.6 µM)

SMILES: CCCn1cc(Br)c2c3c(-c4ccc(OC)cc4)occ3ccc21
MIC (Staphylococcus aureus [1]): 1.4 µg/mL (≈ 3.64 µM)

SMILES: O=C(C1=N[C@H](c2c[nH]c3cc(Br)ccc23)CN1)c1c[nH]c2ccccc12
pIC50 [15]: 7.80

SMILES: O=C(c1ccc(F)cc1)C1C(c2ccc(Cl)cc2)CNC12C(=O)Nc1ccccc12 (stereo unspecified)
MIC (Staphylococcus aureus [2]): 30 µg/mL (≈ 71.3 µM)

SMILES: CCCCn1cc(Br)c2c3c(-c4ccc(Cl)cc4)onc3ccc21
MIC (Staphylococcus aureus [1]): 5 µg/mL (≈ 12.4 µM)

MIC (Staphylococcus aureus [23]): 5 µg/mL (≈ 12 µM)
SMILES: COc1ccc(C2C([N+](=O)[O-])C(c3ccccc3)NC23C(=O)Nc2ccccc23)cc1 (stereo unspecified)
